These compounds were tested against T1, α5-GABAA receptor (Homo sapiens, UniProt P18507+P31644) (assay: Cell-level screening: whole cell patch clamp, inverse agonist efficacy on α5-GABAA receptor expressed in HEK293). Conditions: drug 100 nM, GABA 0.05 μM, HEK293 expressing α5, β3 and γ2 subunits, clamped at −60 mV; read-out: Compound inverse agonist efficacy %.
T1 construct: expressed in transfected cells; host or cells: HEK293, monoclonal stably transfected line
Type: cell-based
Experimental: The inventors used electrophysiological methods to determine the inverse agonist efficacy of the drugs to be tested on the α5-GABAA receptor. The detailed methods are as follows:
Different subunits of GABAA receptors were expressed in human […] cell line 293 (HEK293) cell line. The cells were cultured in a culture medium and used as a cell model for screening pain inhibiting drugs. The α, β and γ subunits are necessary to form complete functional GABAA receptors. In this embodiment, the inventors had established the following cell model: α5 subunit (see GenBank Accession No. NM_000810.3 for protein sequences), β3 subunit (see GenBank Accession No. NM_000814.5 for protein sequences) and γ2 subunit (see GenBank Accession No. NM_000816.3 for protein sequences) were expressed in HEK293 cell line at the same time, followed by screening the monoclonal cell line. This cell line contained α5-GABAA receptor and had complete GABAA receptor function.
The monoclonal stably transfected HEK-293 cells expressing α5-GABAA receptor were cultured in 10 cm culture dishes and passaged when the cells grew to 80%-90%. During passaging, the culture medium was aspirated first, then 3 mL of DPBS phosphate buffer salt (Gibco™) was added to the culture dishes, and the culture dishes were shaken slightly, and DPBS was aspirated. 1 mL of trypsin (TrypLE Express, Gibco™) was added thereto, and the cells were digested at 37° C. for 1-2 minutes. Then 3 mL of complete medium (DMEM+10% FBS (Gibco™)) was added and the cells at the bottom of the culture dishes were dispersed. The cell suspension were transferred to a 15 mL centrifugal tube (Corning) and then centrifuged at 200 g for 3 minutes. The supernatant was discarded, 4 mL of complete medium was added, and the cells were gently blown and resuspended for use. If cell passaging was performed, the cell suspension was diluted at a ratio of 1:5 or 1:10. If cells for electrophysiology use were prepared, the cell suspension was diluted in a ratio of 1:12, then added into a 24-well dish (Corning™) in which glass slides were placed and pretreated with Poly-D-Lysine, and the cells were tested after being attached to the walls. The culture time of cells for electrophysiology use was no more than 48 hours.
Drug concentration setting: the final drug concentration used in drug screening was 100 nM, and the GABA concentration range was 0.05 μM. The final drug concentrations used in the dose-inversal agonistic efficiency (%) test were 0.3 nM, 3 nM, 10 nM, 30 nM, 100 nM and 300 nM. The whole cell patch clamp technique was used in electrophysiological experiments, which could refer to the literature (I. Lecker, Y. Yin, D. S. Wang and B. A. Orser, (2013) Potentiation of GABAA receptor activity by volatile anaesthetics is reduced by α5-GABAA receptor-preferring inverse agonists, British Journal of Anaesthesia 110 (S1): i73-i81). The components of extracellular solution (ECS) for electrophysiology use were as follows: 150 mM NaCl, 5 mM KCl, 2.5 mM CaCl2), 1 mM MgCl2, 10 mM HEPES and 10 mM glucose (pH 7.4); electrode internal solutions for electrophysiology use were as follows: 140 mM CsCl, 11 mM EGTA, 10 mM HEPES, 2 mM CaCl2), 1 mM MgCl2, 4 mM MgATP, 2 mM TEA (pH 7.3). The signal acquisition used an EPC-10 amplifier and the PatchMaster software (HEKA). The recording electrode was drawn using borosilicate glass, and the electrode resistance was 4 to 6 MΩ. The ALA-VC3-8PP™ system was used for extracellular administration. Separate cells that grew independently was selected for recording. During recording, the cell membrane potential was clamped at −60 mV. During experiment, an extracellular solution was applied to the cells for about 20 seconds. When the baseline reached to a stable state, the extracellular solution was switched to GABA. Then the current induced by GABA could be detected. […]

T1 sequence (P31644 32-462): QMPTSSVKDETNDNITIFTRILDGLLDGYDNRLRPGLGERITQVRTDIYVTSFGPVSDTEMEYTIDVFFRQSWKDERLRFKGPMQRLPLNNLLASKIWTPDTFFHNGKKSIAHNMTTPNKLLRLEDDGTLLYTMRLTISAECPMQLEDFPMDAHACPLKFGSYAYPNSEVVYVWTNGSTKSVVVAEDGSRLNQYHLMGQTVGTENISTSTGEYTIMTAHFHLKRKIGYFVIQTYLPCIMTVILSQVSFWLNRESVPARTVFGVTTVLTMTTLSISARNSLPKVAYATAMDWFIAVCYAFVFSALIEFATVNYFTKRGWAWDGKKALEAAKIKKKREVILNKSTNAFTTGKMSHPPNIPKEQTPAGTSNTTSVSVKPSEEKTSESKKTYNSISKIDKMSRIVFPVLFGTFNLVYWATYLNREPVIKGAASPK
T1 sequence (P28472 26-473 partner): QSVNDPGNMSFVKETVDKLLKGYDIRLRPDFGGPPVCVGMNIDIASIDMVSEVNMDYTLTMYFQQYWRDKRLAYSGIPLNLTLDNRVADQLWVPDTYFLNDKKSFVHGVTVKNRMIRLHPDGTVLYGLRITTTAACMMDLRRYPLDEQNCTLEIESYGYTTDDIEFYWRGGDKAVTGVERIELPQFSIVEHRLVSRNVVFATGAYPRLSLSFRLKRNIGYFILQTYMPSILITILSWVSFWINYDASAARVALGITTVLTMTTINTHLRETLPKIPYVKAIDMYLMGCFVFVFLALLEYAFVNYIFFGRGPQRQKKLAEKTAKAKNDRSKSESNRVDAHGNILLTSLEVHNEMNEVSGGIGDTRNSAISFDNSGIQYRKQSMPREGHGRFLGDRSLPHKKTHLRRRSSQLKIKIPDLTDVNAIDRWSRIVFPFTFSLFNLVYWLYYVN
T1 sequence (P18507 40-467 isoform P18507-1 limits assumed): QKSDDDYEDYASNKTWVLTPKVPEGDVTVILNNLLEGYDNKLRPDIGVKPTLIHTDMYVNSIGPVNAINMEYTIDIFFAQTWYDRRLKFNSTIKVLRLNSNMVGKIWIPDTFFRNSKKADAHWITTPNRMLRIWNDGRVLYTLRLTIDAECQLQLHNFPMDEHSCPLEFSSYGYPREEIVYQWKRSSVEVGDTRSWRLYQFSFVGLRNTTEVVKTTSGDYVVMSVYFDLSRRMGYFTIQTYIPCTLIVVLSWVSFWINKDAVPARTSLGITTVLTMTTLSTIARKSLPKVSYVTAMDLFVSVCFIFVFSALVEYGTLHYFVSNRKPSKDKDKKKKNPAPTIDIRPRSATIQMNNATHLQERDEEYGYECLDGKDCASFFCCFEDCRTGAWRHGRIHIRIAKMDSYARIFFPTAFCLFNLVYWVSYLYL

SMILES	inhibition at 0.1 µM [%]
COCCCOc1nnc(COc2nn3c(-c4cc(C)on4)nnc3cc2OC)cc1C [Embodiment 155]	50.1
COc1cc2nnc(-c3cc(C)on3)n2nc1OCc1cnc(OC2COC2)cn1 [Embodiment 157]	46.8
COCCNc1ccc(COc2nn3c(-c4cc(C)on4)nnc3cc2OC)nn1 [Embodiment 159]	50.4
COCC(C)Oc1ccc(COc2nn3c(-c4cc(C)on4)nnc3cc2OC)nn1 (stereo not drawn) [Embodiment 161]	53.1
COc1cc2nnc(-c3cc(C)on3)n2nc1OCc1ccc(OCC2CCCO2)nn1 (stereo not drawn) [Embodiment 165]	49.8
COc1cc2nnc(-c3cc(C)on3)n2nc1OCc1ccc(OCC2CCOCC2)nn1 [Embodiment 171]	53.1
COc1cc2nnc(-c3cc(C)on3)n2nc1OCc1cc(OC2COC2)ccn1 [Embodiment 172]	47.6
COc1cc2nnc(-c3cc(C)on3)n2nc1OCc1ccc(OC2COC2)cn1 [Embodiment 175]	36
CCc1cn2nc(COc3nn4c(-c5cc(C)on5)nnc4cc3OC)ccc2n1 [Embodiment 176]	50.1
COc1cc2nnc(-c3cc(C)on3)n2nc1OCc1cnc(OC2CCOCC2)cn1 [Embodiment 177]	56.5
COc1cc2nnc(-c3cc(C)on3)n2nc1OCc1cnc(OCC2CCCO2)cn1 (stereo not drawn) [Embodiment 178]	36.7
COc1cc2nnc(-c3cc(C)on3)n2nc1OCc1ccc2c(n1)CCN(C1CC(F)(F)C1)C2 [Embodiment 184]	33.9
COc1cc2nnc(-c3cc(C)on3)n2nc1OCc1ccc2c(n1)CCN(Cc1nnc(C)o1)C2 [Embodiment 188]	52.4
COCC(C)(C)N1CCc2nc(COc3nn4c(-c5cc(C)on5)nnc4cc3OC)ccc2C1 [Embodiment 190]	38.3
COc1cc2nnc(-c3cc(C)on3)n2nc1OCc1ccc2c(n1)CCN(c1cc(C)on1)C2 [Embodiment 191]	44
COc1cc2nnc(-c3cc(C)on3)n2nc1OCc1ccc2c(n1)CCN(c1nnc(C)o1)C2 [Embodiment 192]	40.8
COc1cc2nnc(-c3cc(C)on3)n2nc1OCc1ccc2c(n1)CCN(CC13CC(C#N)(C1)C3)C2 [Embodiment 194]	41.5
COc1cc2nnc(-c3cc(C)on3)n2nc1OCc1ccc2c(n1)CCN(C1CC(C#N)C1)C2 (stereo not drawn) [Embodiment 195]	45.8
COc1cc2nnc(-c3cc(C)on3)n2nc1OCc1ccc2c(n1)CCN(CC(F)(F)CO)C2 [Embodiment 196]	50.8
COc1cc2nnc(-c3cc(C)on3)n2nc1OCc1ccc2c(n1)CCN(C1CN(C(C)=O)C1)C2 [Embodiment 199, 1-(3-(2-(((7-Methoxy-3-(5-methylisoxazol-3-yl)-[1,2,4]triazolo[4,3-b]pyridazin-6-yl)oxy)methyl)-7,8-dihydro-1,6-naphthyridin-6(5H)-yl)azetidin-1-yl)ethan-1-one]	56.8
COc1cc2nnc(-c3cc(C)on3)n2nc1OCc1ccc2c(n1)CCN(C(=O)NC1CC(F)(F)C1)C2 [Embodiment 201, N-(3,3-Difluorocyclobutyl)-2-(((7-methoxy-3-(5-methylisoxazol-3-yl)-[1,2,4]triazolo[4,3-b]pyridazin-6-yl)oxy)methyl)-7,8-dihydro-1,6-naphthyridine-6(5H)-carboxamide]	48.3
COc1cc2nnc(-c3cc(C)on3)n2nc1OCc1ccc2c(n1)CCN(C(=O)N(C)CC(F)(F)F)C2 [Embodiment 204]	49.7
COc1cc2nnc(-c3cc(C)on3)n2nc1OCc1ccc2c(n1)CCN(S(=O)(=O)N(C)C)C2 [Embodiment 205, 2-(((7-Methoxy-3-(5-methylisoxazol-3-yl)-[1,2,4]triazolo[4,3-b]pyridazin-6-yl)oxy)methyl)-N,N-dimethyl-7,8-dihydro-1,6-naphthyridine-6(5H)-sulfonamide]	52.5

SMILES	inhibition at 0.1 µM [%]
COc1cc2nnc(-c3cc(C)on3)n2nc1OCc1ccc2c(n1)CCN(C(=O)NCC(F)F)C2 [Embodiment 207]	49.3
COc1cc2nnc(-c3cc(C)on3)n2nc1OCc1ccc2c(n1)CCN(S(C)(=O)=O)C2 [Embodiment 209]	48.8
COc1cc2nnc(-c3cc(C)on3)n2nc1OCc1ccc2nc(C3CCOCC3)cn2n1 [Embodiment 212]	72.6
COc1cc2nnc(-c3cc(C)on3)n2nc1OCc1ccc2nnc(C3CCOCC3)n2n1 [Embodiment 215]	36.8
COc1cc2nnc(-c3cc(C)on3)n2nc1OCc1ccc2cnn(C)c2n1 [Embodiment 220]	51.8
COc1cc2nnc(-c3cc(C)on3)n2nc1OCc1ccc2c(cnn2Cc2ccccc2)n1 [Embodiment 222]	44.3
COc1cc2nnc(-c3cc(C)on3)n2nc1OCc1ccc2c(cnn2Cc2cc(C)on2)n1 [Embodiment 224]	46.7
COc1cc2nnc(-c3cc(C)on3)n2nc1OCc1ccc2nn(Cc3cc(C)on3)cc2n1 [Embodiment 225]	74.4
COc1cc2nnc(-c3cc(C)on3)n2nc1OCc1ccc2nn(C3COC3)cc2n1 [Embodiment 226, 3-(7-Methoxy-6-((2-(oxetan-3-yl)-2H-pyrazolo[4,3-b]pyridin-5-yl)methoxy)-[1,2,4]triazolo[4,3-b]pyridazin-3-yl)-5-methylisoxazole]	45.9
COc1cc2nnc(-c3cc(C)on3)n2nc1OCc1ccc2c(cnn2C2COC2)n1 [Embodiment 227]	61.5
COc1cc2nnc(-c3cc(C)on3)n2nc1OCc1ccc2c(cnn2CCC#N)n1 [Embodiment 228]	44.7
COc1cc2nnc(-c3cc(C)on3)n2nc1OCc1ccc2c(cnn2CCc2ccccc2)n1 [Embodiment 229, 3-(7-Methoxy-6-(((1-phenethyl-1H-pyrazolo[4,3-b]pyridin-5-yl]methoxy])-[1,2,4]triazolo[4,3-b]pyridazin-3-yl)-5-methylisoxazole]	30.8
COc1cc2nnc(-c3cc(C)on3)n2nc1OCc1ccc2nn(CCc3ccccc3)cc2n1 [Embodiment 230, 3-(7-Methoxy-6-(((2-phenethyl-2H-pyrazolo[4,3-b]pyridin-5-yl]methoxy])-[1,2,4]triazolo[4,3-b]pyridazin-3-yl)-5-methylisoxazole]	57.2
COc1cc2nnc(-c3cc(C)on3)n2nc1OCc1ccc2nn(C(C)C)cc2n1 [Embodiment 235]	43.5
COc1cc2nnc(-c3cc(C)on3)n2nc1OCc1ccc2c(cnn2C(C)C)n1 [Embodiment 236]	54.8
COc1cc2nnc(-c3cc(C)on3)n2nc1OCc1ccc2nn(C)cc2n1 [Embodiment 237]	57.9
COc1cc2nnc(-c3cc(C)on3)n2nc1OCc1ccc2c(cnn2C2CCOCC2)n1 [Embodiment 239]	48
COc1cc2nnc(-c3cc(C)on3)n2nc1OCc1ccc2c(n1)c(C)nn2C1COC1 [Embodiment 242]	54.7
CCn1nc(C)c2nc(COc3nn4c(-c5cc(C)on5)nnc4cc3OC)ccc21 [Embodiment 243]	50.5
CCn1nc2ccc(COc3nn4c(-c5cc(C)on5)nnc4cc3OC)nc2c1C [Embodiment 244]	75.1
COc1cc2nnc(-c3cc(C)on3)n2nc1OCc1ccc2ncn(C3CCOC3)c2n1 (stereo not drawn) [Embodiment 246]	46.6
COc1cc2nnc(-c3cc(C)on3)n2nc1OCc1ccc2c(ncn2C2CCOCC2)n1 [Embodiment 248]	31.4
